The target in experiment [1] is T1, Truncated MAT II (α2 dimer + ΔS16 β) (Homo sapiens, UniProt P31153, G193S/A233V).
T1 construct: gene MAT2A; ratio 2:1; with Methionine adenosyltransferase 2 subunit beta
The experiment is described as follows: MAT activity assay (AdoMet synthesis). The class given is biochemical. Conditions: 5 mM methionine, 37 °C, no added NADP+. An excerpt: MAT activity assay (AdoMet synthesis) on Truncated MAT II (α2 dimer + ΔS16 β)

Experiment [2] deals with T2, refolded-α2 (MAT α2 homo-dimer) (Homo sapiens, UniProt P31153, G193S/A233V).
T2 construct: gene MAT2A; 43447 Da; dimer (tetramer at higher concentration); all cloned ORFs carry A233V and G193S
T2 sequence (P31153 whole entry G193S/A233V): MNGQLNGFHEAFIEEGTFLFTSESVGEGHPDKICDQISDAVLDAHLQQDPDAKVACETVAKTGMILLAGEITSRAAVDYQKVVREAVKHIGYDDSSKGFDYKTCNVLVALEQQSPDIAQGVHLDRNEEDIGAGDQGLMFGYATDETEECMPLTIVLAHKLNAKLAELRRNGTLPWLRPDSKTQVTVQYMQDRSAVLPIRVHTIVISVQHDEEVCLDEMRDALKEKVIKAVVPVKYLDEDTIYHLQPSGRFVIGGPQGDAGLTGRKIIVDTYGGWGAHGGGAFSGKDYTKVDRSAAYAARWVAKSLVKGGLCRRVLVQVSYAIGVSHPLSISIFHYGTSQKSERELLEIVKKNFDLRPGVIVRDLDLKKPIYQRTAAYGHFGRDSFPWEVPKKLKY
Briefly: MAT activity assay (AdoMet synthesis). The class given is biochemical. Conditions: 5 mM methionine, 37 °C, no added NADP+. An excerpt:
MAT activity assay (AdoMet synthesis) on refolded-α2 (MAT α2 homo-dimer)

Experiment [3] addresses T3, MAT II (α2 dimer + wild type β hetero-trimer) (Homo sapiens, UniProt P31153, G193S/A233V, form not given).
T3 construct: gene MAT2A; hetero-trimer 2:1; with Methionine adenosyltransferase 2 subunit beta
Briefly: MAT activity assay (AdoMet synthesis). In kind it is biochemical. Conditions: 5 mM methionine, 37 °C, no added NADP+. The source says: MAT activity assay (AdoMet synthesis) on MAT II (α2 dimer + wild type β hetero-trimer)

Experiment [4] has as its target T4, MAT β subunit (regulatory β subunit, V1 form) (Homo sapiens, UniProt Q9NZL9).
T4 construct: gene MAT2B; full length V1 from GST fusion in E. coli, TEV-cut, GSH linker retained at N-terminus; monomer/dimer equilibrium
T4 sequence (Q9NZL9 1-334): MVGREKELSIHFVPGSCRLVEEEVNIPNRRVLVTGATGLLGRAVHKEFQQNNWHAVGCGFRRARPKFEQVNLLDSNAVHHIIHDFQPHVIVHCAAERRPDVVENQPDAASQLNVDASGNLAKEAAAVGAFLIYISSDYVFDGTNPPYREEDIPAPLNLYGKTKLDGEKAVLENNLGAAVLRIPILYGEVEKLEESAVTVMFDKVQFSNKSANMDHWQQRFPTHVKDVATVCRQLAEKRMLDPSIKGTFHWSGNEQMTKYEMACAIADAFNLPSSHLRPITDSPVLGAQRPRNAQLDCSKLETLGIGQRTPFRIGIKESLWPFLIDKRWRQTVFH
Briefly: isothermal titration calorimetry. The class given is binding. Conditions: read-out: NADP^+→β. The source says: isothermal titration calorimetry on MAT β subunit (regulatory β subunit, V1 form)

In experiment [5] the target is T5, MAT β subunit (regulatory β subunit, V1 form) (Homo sapiens, UniProt Q9NZL9, K163A/Y159F).
T5 construct: gene MAT2B; full length V1 from GST fusion in E. coli, TEV-cut, GSH linker retained at N-terminus; monomer/dimer equilibrium
T5 sequence (Q9NZL9 1-334 Y159F/K163A): T4 sequence (Q9NZL9 1-334) with Y159F, K163A
The experiment is described as follows: isothermal titration calorimetry. The class given is binding. A general note: ITC needs no label: the signal is the heat of the interaction.

Substitutions are numbered along the chain they refer to. A value given as a limit tells only on which side of the number the result lay.

T3 sequence (P31153 whole entry G193S/A233V, form open): as the sequence (P31153 whole entry G193S/A233V) above
T3 sequence (Q9NZL9 whole entry Y159F/K163A partner, form open): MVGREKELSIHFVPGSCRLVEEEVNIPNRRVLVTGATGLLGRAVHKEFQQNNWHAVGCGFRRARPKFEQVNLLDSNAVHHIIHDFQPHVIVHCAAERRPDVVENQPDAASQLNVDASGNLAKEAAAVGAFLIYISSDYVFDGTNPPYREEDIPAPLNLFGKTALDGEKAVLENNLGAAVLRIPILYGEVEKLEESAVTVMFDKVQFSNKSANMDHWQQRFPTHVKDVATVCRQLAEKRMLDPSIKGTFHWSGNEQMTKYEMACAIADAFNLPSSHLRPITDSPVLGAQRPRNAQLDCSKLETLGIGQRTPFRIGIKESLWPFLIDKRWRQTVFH
T1 sequence (P31153 whole entry G193S/A233V, stated change not applied, one chain of several, the tested form may be a part): as the sequence (P31153 whole entry G193S/A233V) above

For `Nc1ncnc2c1ncn2[C@@H]1O[C@H](COP(=O)(O)OP(=O)(O)OP(=O)(O)O)[C@@H](O)[C@H]1O` [ATP], the figures for the Km in experiment [1], in experiment [2] and in experiment [3] were 151 ± 81.4 µM, 254 ± 66.2 µM and 125 ± 32.2 µM, respectively.
For `NC(=O)c1ccc[n+]([C@@H]2O[C@H](COP(=O)(O)OP(=O)(O)OC[C@H]3O[C@@H](n4cnc5c(N)ncnc54)[C@H](OP(=O)(O)O)[C@@H]3O)[C@@H](O)[C@H]2O)c1` [NADP^+], the Kd in experiment [4] is 1700 nM; in experiment [5] it was over 150000 nM.

What is called Km is the concentration of substrate that gives half-maximal velocity.
